What all share (experiment): NCI anticancer screen, dose series, 48 h
Test [1] deals with HOP-92 NSCLC.
The test system of test [2] is HCT-15 colon.
For test [3], the system named is HL-60(TB) leukemia.
In test [4] the test system is NCI-H522 lung.
In test [5] the test system is NCI-H460 lung.
Test [6] relates to UO-31 renal.
Test [7] concerns SF-539 CNS.
In test [8] the test system is SW-620 colon.
For test [9], the system named is HCT-116 colon.
The test system of test [10] is OVCAR-5 ovarian.

In PubChem BioAssay (NCI) one finds TGI and GI50 data, which are given here for ten molecules.

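Five compound concentrations were applied to cells in 96-well plates for 48 hours; endpoints were derived by simple linear interpolation of the resulting dose-response curve. GI50 is the concentration that inhibits growth by half. TGI marks complete inhibition of growth.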 Bounds are passed on as bounds.

With `CC(C)(C)CNCCO`, the TGI in test [1], in [2], in test [3], in [4], in test [5] and in test [6] was above 100 µM each time. In addition, the TGI in test [7], in test [8], in test [9] and in test [10] was above 100 µM throughout.

In the case of `Cc1ccc(NC(=O)c2ccoc2)cc1-c1ccc(C(=O)NCC2CC2)cc1`, the GI50 was 8.76 µM in test [1]; above 20.5 µM in [2]; above 20.4 µM in test [3]; above 15.9 µM in test [4]; above 24 µM in test [5]; above 9.98 µM in test [6]. The GI50 in [7], in test [8], in test [9] and in test [10] was above 25 µM throughout. For the same molecule, the TGI was above 25 µM in [1]; above 25 µM in test [2]; above 25 µM in test [3]; above 25 µM in test [4]; above 25 µM in test [5]; above 17.1 µM in test [6]. Further, the TGI in test [7], in test [8], in test [9] and in test [10] was above 25 µM throughout.

On to `OC(c1ccccc1)c1c(-c2ccccc2)[nH]c(-c2ccccc2)c1C(O)c1ccccc1` (stereo not given), for which the TGI turned out to be 5.46 µM in test [1]; 40.1 µM in [2]; 4.24 µM in test [3]; 11.5 µM in test [4]; 14.2 µM in test [5]; 5.78 µM in test [6]. For the same molecule, the TGI stood at 6.94 µM in test [7], 29.1 µM in [8], 8.83 µM in test [9] and 10.8 µM in test [10].

Take `CN(N=O)C(=O)NC(CCCCNC(=O)OCc1ccccc1)C(=O)OCc1ccccc1` (stereo not given): the TGI in test [1] was 54.2 µM; in [2], above 100 µM; in test [3] it was 48.7 µM; in test [4] it was 29.1 µM; in test [5], above 100 µM; in [6] it was 38.3 µM. Moreover, the TGI is 32.7 µM in test [7], above 100 µM in test [8], above 100 µM in [9] and above 100 µM in test [10].

For the molecule `CCCCCCCCCCCC1=NC(C)(C)CN1C(C)C`, the GI50 is 1.19 µM in test [1]; 2.63 µM in test [2]; 2.14 µM in test [3]; 2.65 µM in [4]; 3.22 µM in [5]; 2.75 µM in test [6]. Besides, the GI50 in [7] is 2.14 µM; in [8], 1.85 µM; in [9] it was 2.83 µM; in test [10], 4.14 µM. Moreover, the TGI in [1] was determined as 5.17 µM; in [2], 8.76 µM; in test [3], 4.55 µM; in test [4], 10.8 µM; in test [5] it was 9.28 µM; in test [6], 12.5 µM. Further, the TGI was 4.41 µM in [7], 3.87 µM in [8], 10.4 µM in [9] and 16.1 µM in test [10].

Take `COc1cccc2c1C(=O)c1c(O)c3c(c(O)c1C2=O)C[C@@](O)(/C(C)=N/NC(=O)c1cccc([N+](=O)[O-])c1)C[C@@H]3OC1CC(N)C(O)C(C)O1` (stereo not given in full): the GI50 in test [1] was 0.201 µM; in test [2] it was 1.57 µM; in test [3], 0.146 µM; in test [4] it was 0.494 µM; in test [5], 0.0548 µM; in [6], 0.882 µM. The GI50 is 0.21 µM in [7], 0.156 µM in test [8], 0.131 µM in test [9] and 0.919 µM in test [10]. The TGI is 4.71 µM in test [1]; 14.2 µM in [2]; 0.923 µM in test [3]; 5.96 µM in test [4]; 12.9 µM in test [5]; above 22 µM in test [6]. Besides, the TGI is 1.22 µM in test [7], 9.4 µM in [8], 5.25 µM in test [9] and 13.5 µM in test [10].

For the molecule `COc1cc(-c2csc(NC(=O)Nc3ccc(Cl)cc3)n2)cc(OC)c1OC`, the GI50 in [1] was 2.12 µM; in [2], 2.9 µM; in test [3], 2.79 µM; in test [4], 2.34 µM; in [5], 3.32 µM; in [6], 2.35 µM. For the same molecule, the GI50 in [7] was 2.98 µM; in [8] it was 3.96 µM; in [9], 2.83 µM; in [10], 3.56 µM. For the same molecule, the TGI in [1] is 6.85 µM; in [2], above 40.9 µM; in test [3] it was 6.83 µM; in test [4], 6.95 µM; in test [5], above 48.4 µM; in [6], 7.68 µM. Besides, the TGI in test [7] is 13.7 µM; in [8] it was above 100 µM; in test [9] it was 8.12 µM; in test [10], 21 µM.

`COc1cc2c(cc1OCCCCCOc1ccc(-c3nc4ccccc4s3)cc1)N=C[C@@H]1CCCN1C2=O`: the GI50 in [1] was 0.886 µM; in test [2], 2.46 µM; in [3], 1.35 µM; in [4], 1.72 µM; in test [5], 1.27 µM; in test [6], 2.5 µM. Moreover, the GI50 in [7] is 1.58 µM; in test [8], 3.01 µM; in test [9] it was 1.23 µM; in test [10], 2.74 µM. Further, the TGI in test [1] stood at 3.62 µM; in test [2], 22.2 µM; in [3], 8.72 µM; in test [4], 13.7 µM; in test [5], 7.66 µM; in test [6], 13.4 µM. For the same molecule, the TGI in [7] is 6.09 µM; in test [8], above 28.6 µM; in [9] it was 12.4 µM; in test [10], 19.2 µM.

`CCCN1CCC(Oc2cc(Nc3nc(Nc4cccc(F)c4C(N)=O)c4cc[nH]c4n3)c(OC)cc2Cl)CC1`: the GI50 in [1] was 0.309 µM; in [2], 1.44 µM; in test [3] it was 2.54 µM; in test [4], 3.98 µM; in [5], 1.45 µM; in [6], 2.94 µM. Further, the GI50 was 4.13 µM in test [7], 0.785 µM in [8], 2.16 µM in [9] and 3.44 µM in test [10]. For the same molecule, the TGI in test [1] came to 3.42 µM; in test [2] it was 6.84 µM; in [3] it was 8.31 µM; in test [4], 7.9 µM; in test [5], 4.79 µM; in [6], 8.93 µM. The TGI in test [7] stood at 8.24 µM; in test [8] it was 3.57 µM; in test [9] it was 5.5 µM; in test [10], 7.27 µM.

Turning to `O=C(Nc1ccccc1/C=C/c1n[nH]c2ccccc12)c1ccccc1`, the GI50 in [1] is 0.218 µM; in test [2], 2.37 µM; in test [3] it was 0.589 µM; in test [4] it was 9.28 µM; in test [5], 2.15 µM; in test [6] it was 4.14 µM. Also, the GI50 was 4.26 µM in test [7], 1.71 µM in test [8], 2.28 µM in [9] and 1.92 µM in test [10]. Also, the TGI was 5.25 µM in test [1]; 8.53 µM in test [2]; 16.2 µM in test [3]; 24 µM in [4]; 11.2 µM in test [5]; 19.3 µM in [6]. The TGI in test [7] is 14.1 µM; in test [8], 11.5 µM; in test [9] it was 10.5 µM; in test [10], 12.9 µM.
